In patent US6492365B1, “Microsomal triglyceride transfer protein” (Bristol-Myers Squibb Company, priority 1992, dated 2002) one finds melting point data, which are given here for 23 compounds.

Counter-ions that a name gives are not always drawn.

One may read the melting point as the temperature, or range, at which the solid turns liquid. In turn, `O=C1c2ccccc2CN1C1CCN(C(c2ccccc2)c2ccccc2)CC1` (as salt: hydrochloride) [Example 35, 2,3-Dihydro-2-[1-(diphenylmethyl)-4-piperidinyl]-1H-isoindol-1-one, monohydrochloride] had a melting point of 165 to 169 °C. Take `O=C(NC1CCN(CCC(c2ccccc2)c2ccccc2)CC1)c1ccccn1` (as salt: hydrochloride) [Example 40, N-[1-(3,3-Diphenylpropyl)-4-piperidinyl]-2-pyridineamide, monohydrochloride]: the melting point lay in the range of 109 to 116 °C. `COc1ccc(C(C(=O)NC2CCN(CCc3ccccc3)CC2)c2ccc(OC)cc2)cc1` (as salt: hydrochloride) [Example 29, 4-Methoxy-α-(4methoxyphenyl)-N-[1-(2-phenylethyl)-4-piperidinyl]benzeneacetamide, monohydrochloride] registered a melting point of 180 to 182 °C. The figure for `O=C(Cc1c[nH]c2ccccc12)NC1CCN(Cc2ccccc2)CC1` [Example 28, N-[1-(Phenylmethyl)-4-piperidinyl]-1H-indole-3-acetamide] is 153 to 154 °C. Compound `O=C1c2ccccc2CN1C1CCN(C/C=C/CC(c2ccccc2)c2ccccc2)CC1` (as salt: hydrochloride) [Example 33, 2-[1-(5,5-Diphenyl-2-pentenyl)-4-piperidinyl]-2,3-dihydro-1H-isoindol-1-one, monohydrochloride] yielded a melting point of 127 to 134 °C. Compound `O=C1c2ccccc2CN1C1CCN(CCCc2ccccc2Oc2ccccc2)CC1` (as salt: hydrochloride) [Example 34, 2,3-Dihydro-2-[1-[3-(2-phenoxyphenyl)propyl]-4-piperidinyl]-1H-isoindol-1-one, monohydrochloride] showed a melting point of 199 to 202 °C. The figure for `COc1ccccc1N1CCN(CC2CC(=O)c3ccc(F)cc3C2)CC1` (centres unmarked) [Example 22, 6-Fluoro-3,4-dihydro-3-[[4-(2-methoxyphenyl)-1-piperazinyl]-methyl]-1(2H)-naphthalenone] is 111 to 113 °C; for `O=C1c2ccccc2CN1C1CCN(C/C=C/c2ccccc2Oc2ccccc2)CC1` (as salt: hydrochloride) [Example 20, (E)-2,3-Dihydro-2-[1-[3-(2-phenoxyphenyl)-2-propenyl]-4-piperidinyl]-1H-isoindol-1-one, monohydrochloride] it is 215 to 218 °C.

In turn, `O=C(NC1CCN(CCc2ccccc2)CC1)C(c1ccccc1)c1ccccc1` (as salt: hydrochloride) [Example 30, α-Phenyl-N-[1-(phenylethyl)-4-piperidinyl]-benzeneacetamide, monohydrochloride] returned a melting point of 263 to 264 °C. The figure for `O=C1CC(CN2CCN(C(c3ccccc3)c3ccc(Cl)cc3)CC2)Cc2cc(F)ccc21` (centres unmarked) (as salt: hydrochloride) [Example 27, 3-[[4-[(4-Chlorophenyl)phenylmethyl]-1-piperazinyl]methyl]-6-fluoro-3,4-dihydro-1(2H)-naphthalenone, dihydrochloride] is 211 to 212 °C; for `O=C1c2ccc(Cl)cc2CN1C1CCN(Cc2ccccc2)CC1` (as salt: hydrochloride) [Example 31, 5-Chloro-2,3-dihydro-2-[1-(phenylmethyl)-4-piperidinyl]-1H-isoindol-1-one, monohydrochloride] it is 269 to 271 °C; for `O=C1CC(CN2CCN(c3ccccc3)CC2)Cc2ccccc21` (centres unmarked) (as salt: hydrochloride) [Example 23, 3,4-Dihydro-3-[(4-phenyl-1-piperazinyl)methyl]-1-(2H)-naphthalenone, monohydrochloride] it is 243 to 246 °C. Compound `COc1ccccc1N1CCN(C(=O)C2CC(=O)c3ccccc3C2)CC1` (centres unmarked) (as salt: hydrochloride) [Example 25, 3,4-Dihydro-3-[[4-(2-methoxyphenyl)-1-piperazinyl]-carbonyl]-1(2H)-naphthalenone, monohydrochloride] came in with a melting point of 197 to 199 °C.

Consider `O=C1c2ccccc2CN1C1CCN(CC=C(c2ccccc2)c2ccccc2)CC1` (as salt: hydrochloride) [Example 11, 2-[1-(3,3-Diphenyl-2-propenyl)-4-piperidinyl]-2,3-dihydro-1H-isoindol-1-one, monohydrochloride], for which the melting point lay within 231 to 235 °C. As for `O=C(c1ccccc1)N(Cc1ccccc1)C1CCN(CCC(c2ccccc2)c2ccccc2)CC1` (as salt: hydrochloride) [Example 42, N-[1-(3,3-Diphenylpropyl)-4-piperidinyl]-N-(phenylmethyl)benzamide, monohydrochloride], the melting point is 115 to 120 °C.

As to `CCCCC(=CCN1CCC(N2Cc3ccccc3C2=O)CC1)CCCC` (as salt: hydrochloride) [Example 32, 2-[1-(3-Butyl-2-heptenyl)-4-piperidinyl]-2,3-dihydro-1H-isoindol-1-one, monohydrochloride], the melting point is 147 to 152 °C.

Take `O=C1c2ccccc2CN1C1CCN(Cc2ccccc2)CC1` (as salt: hydrochloride) [Example 13, 2,3-Dihydro-2-[1-(phenylmethyl)-4-piperidinyl]-1H-isoindol-1-one, monohydrochloride]: the melting point was in the range of 271 to 274 °C. For `O=C1c2ccccc2CN1C1CCN(CCCc2ccccc2)CC1` (as salt: hydrochloride) [Example 14, 2,3-Dihydro-2-[1-(3-phenylpropyl)-4-piperidinyl]-1H-isoindol-1-one, monohydrochloride] the value was 229 to 231 °C. `O=C1c2ccccc2CN1C1CCN(C/C=C\CC(c2ccccc2)c2ccccc2)CC1` (as salt: hydrochloride) [Example 36, (Z)-2,3-Dihydro-2-[1-(5,5-diphenyl-2-pentenyl)-4-piperidinyl]-1H-isoindol-1-one, monohydrochloride] returned a melting point of 174 to 177 °C. `CCCCC(CCCC)CCN1CCC(N2Cc3ccccc3C2=O)CC1` (as salt: hydrochloride) [Example 17, 2-[1-(3-Butylheptyl)-4-piperidinyl]-2,3-dihydro-1H-isoindol-1-one, monohydrochloride]: the melting point lay within 185 to 187 °C. The figure for `CC(=O)N(Cc1ccccc1)C1CCN(CCC(c2ccccc2)c2ccccc2)CC1` (as salt: hydrochloride) [Example 41, N-[1-(3,3-Diphenylpropyl)-4-piperidinyl]-N-(phenylmethyl)acetamide, monohydrochloride] is 102 to 105 °C. The figure for `COc1ccccc1CCCN1CCC(N2Cc3ccccc3C2=O)CC1` (as salt: hydrochloride) [Example 21, 2,3-Dihydro-2-[1-[3-(2-methoxyphenyl)propyl]-4-piperidinyl]-1H-isoindol-1-one, monohydrochloride] is 191 to 195 °C; for `COc1ccccc1C(=O)NC1CCN(CCC(c2ccccc2)c2ccccc2)CC1` (as salt: hydrochloride) [Example 38, N-[1-(3,3-Diphenylpropyl)-4-piperidinyl]-2-methoxybenzamide, monohydrochloride] it is 170 to 172 °C.
